From ChEMBL document CHEMBL3351354, “From the covalent linkage of drugs to novel inhibitors of ribonucleotide reductase: synthesis and biological evaluation of valproic esters of 3'-C-methyladenosine” (Bioorg Med Chem Lett, 2014) come the findings set out here.

Activity calls are given as the source filed them. The calls are words filed in the database; no cut-off is given here.

The subject of series [1] is HT-29. Kind of series: Growth inhibition of human HT-29 cells after 48 hrs by MTT assay. The conditions noted are these: Homo sapiens, HT-29, 48 h; read-out: IC50. The series is classed as functional, cell-based.
Series [2] in a line: Growth inhibition of human Caco2 cells after 48 hrs by MTT assay. The series is classed as functional, cell-based, Caco-2. The conditions noted are these: Homo sapiens, Caco-2, 48 h; read-out: IC50.
The nature of series [3]: Half life in RPMI-1640 medium containing 10% fetal calf serum assessed as compound disappearance by HPLC-DAD-ESI-MS method. The series is classed as ADME, Bos taurus. The following applies: cattle.
Series [4] is described as follows: Growth inhibition of human HL60 cells after 48 hrs by MTT assay. The following applies: Homo sapiens, HL-60, 48 h; read-out: IC50. The series is classed as functional, cell-based, HL-60. For orientation: Formazan colour is commonly taken as a measure of viable cells.
In series [5] the target is T1, Ribonucleotide reductase (Homo sapiens) (UniProt P23921+Q7LG56). Kind of series: Inhibition of ribonucleotide reductase in human HL60 cells assessed as intracellular dNTP pools level at 1.2 mM after 1 hr by HPLC method. The series is classed as cell-based. The conditions noted are these: HL-60.
Series [6] relates to HL-60. Kind of series: Induction of cell cycle arrest in human HL60 cells assessed as accumulation at S phase at 1 mM after 24 hrs by propidium iodide staining based flow cytometry (reference value: 54%). The series is classed as functional. On the technique in general: Flow cytometry measures light scatter and fluorescence of single cells or particles in a stream.
Series [7] deals with T1, Ribonucleotide reductase (Homo sapiens). Kind of series: Inhibition of human recombinant ribonucleotide reductase at 1.2 mM. Type of series: protein-complex assay.
The nature of series [8]: Half life in pH 7.4 isotonic sodium phosphate buffer at 37 degC by HPLC-DAD-ESI-MS method. The series is classed as physicochemical.
In series [9] the test system is HL-60. Kind of series: Induction of cell cycle arrest in human HL60 cells assessed as accumulation at G2M phase at 1 mM after 24 hrs by propidium iodide staining based flow cytometry (reference value: 12%). Type of series: functional.
Series [10] concerns K562. Kind of series: Growth inhibition of human K562 cells after 48 hrs by MTT assay. Type of series: functional, cell-based. The conditions noted are these: Homo sapiens, K562, 48 h; read-out: IC50.
Series [11] relates to HeLa. Kind of series: Growth inhibition of human HeLa cells after 48 hrs by MTT assay. The series is classed as functional, cell-based. The following applies: Homo sapiens, HeLa, 48 h; read-out: IC50.
Series [12] relates to HuT78. Kind of series: Growth inhibition of human HUT78 cells after 48 hrs by MTT assay. The series is classed as functional, cell-based. The following applies: Homo sapiens, HuT78, 48 h; read-out: IC50.
The subject of series [13] is HL-60. Kind of series: Induction of apoptosis in human HL60 cells after 24 to 48 hrs by acridine orange and ethidium bromide staining based fluorescence microscopy. Type of series: functional, cell-based. The following applies: hl-60.
Series [14] deals with HL-60. Kind of series: Induction of cell cycle arrest in human HL60 cells assessed as accumulation at G1 phase at 1 mM after 24 hrs by propidium iodide staining based flow cytometry (reference value: 32%). Type of series: functional.
In series [15] the test system is MCF7. Kind of series: Growth inhibition of human MCF7 cells after 48 hrs by MTT assay. The series is classed as functional, cell-based. The conditions noted are these: Homo sapiens, MCF7, 48 h; read-out: IC50.
In series [16] the target is T1, Ribonucleotide reductase (Homo sapiens). Kind of series: Inhibition of human recombinant ribonucleotide reductase at 1.2 mM in presence of dGTP. The series is classed as protein-complex assay.
Series [17] has the same target. Kind of series: Inhibition of ribonucleotide reductase in human HL60 cells assessed as intracellular dNTP pools level at 0.3 mM after 1 hr by HPLC method. The series is classed as cell-based. The following applies: HL-60.
Series [18] addresses T2, Ribonucleotide reductase (Homo sapiens, UniProt P23921+Q7LG56).
T2 sequence (P23921 whole entry): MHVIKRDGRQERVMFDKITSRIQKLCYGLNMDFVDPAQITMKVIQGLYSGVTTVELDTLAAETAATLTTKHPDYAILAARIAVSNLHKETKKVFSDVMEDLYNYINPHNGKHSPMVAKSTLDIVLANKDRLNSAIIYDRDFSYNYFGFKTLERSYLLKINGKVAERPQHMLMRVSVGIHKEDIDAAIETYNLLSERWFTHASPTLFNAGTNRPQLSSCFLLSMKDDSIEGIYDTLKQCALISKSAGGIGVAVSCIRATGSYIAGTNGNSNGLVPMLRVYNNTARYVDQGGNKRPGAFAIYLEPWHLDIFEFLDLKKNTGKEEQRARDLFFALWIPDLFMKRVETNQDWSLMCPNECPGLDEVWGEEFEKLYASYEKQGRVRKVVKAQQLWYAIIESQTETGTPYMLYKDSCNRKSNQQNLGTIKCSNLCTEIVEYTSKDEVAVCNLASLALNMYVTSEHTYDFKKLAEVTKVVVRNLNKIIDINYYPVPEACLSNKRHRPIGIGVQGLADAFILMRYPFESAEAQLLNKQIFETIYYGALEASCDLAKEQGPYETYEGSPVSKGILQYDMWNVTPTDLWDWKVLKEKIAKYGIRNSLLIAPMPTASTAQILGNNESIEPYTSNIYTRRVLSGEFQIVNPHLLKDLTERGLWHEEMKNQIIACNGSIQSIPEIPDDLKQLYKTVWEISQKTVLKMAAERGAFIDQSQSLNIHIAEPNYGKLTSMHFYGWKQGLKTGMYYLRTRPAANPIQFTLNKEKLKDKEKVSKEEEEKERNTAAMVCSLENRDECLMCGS
T2 sequence (Q7LG56 whole entry): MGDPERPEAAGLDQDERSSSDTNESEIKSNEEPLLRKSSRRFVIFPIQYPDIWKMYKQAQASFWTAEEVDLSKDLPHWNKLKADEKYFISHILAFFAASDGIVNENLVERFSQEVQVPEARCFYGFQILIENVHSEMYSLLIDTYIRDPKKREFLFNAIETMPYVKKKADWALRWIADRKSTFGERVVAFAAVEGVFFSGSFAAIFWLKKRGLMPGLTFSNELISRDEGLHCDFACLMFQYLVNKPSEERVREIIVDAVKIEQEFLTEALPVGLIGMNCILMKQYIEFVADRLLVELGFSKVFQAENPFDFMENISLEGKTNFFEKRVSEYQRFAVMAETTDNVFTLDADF
Kind of series: Competitive inhibition of human recombinant ribonucleotide reductase in presence of varying levels of ATP by Dixon plot. Type of series: protein-complex assay.

For series [19], the target named is T1, Ribonucleotide reductase (Homo sapiens). Kind of series: Inhibition of human recombinant ribonucleotide reductase at 1.2 mM in presence of 3 mM ATP. Type of series: protein-complex assay.
The target of series [20] is Histone deacetylase (Homo sapiens) (UniProt Q13547+O15379+Q9UBN7+Q92769+Q9UQL6+Q8WUI4+Q9BY41+Q96DB2+P56524+Q9UKV0+Q969S8). Kind of series: Inhibition of HDAC in human HL60 cells assessed as increase in histone H3 acetylation at 10 and 100 uM after 24 hrs by Western blotting method. The series is classed as cell-based. The conditions noted are these: HL-60. In general terms: Immunoblotting shows a protein as a band on a membrane.

Series [21] concerns HL-60. Kind of series: Induction of cell cycle arrest in human HL60 cells assessed as accumulation at G2M phase at 100 uM after 24 hrs by propidium iodide staining based flow cytometry (reference value: 12%). The series is classed as functional.
Series [22] concerns the target T1, Ribonucleotide reductase (Homo sapiens). Kind of series: Inhibition of human recombinant ribonucleotide reductase at 1.2 mM in presence of 1 mM ATP. Type of series: protein-complex assay.
The subject of series [23] is HL-60. Kind of series: Induction of cell cycle arrest in human HL60 cells assessed as accumulation at S phase at 100 uM after 24 hrs by propidium iodide staining based flow cytometry (reference value: 54%). The series is classed as functional.
Series [24] relates to HL-60. Kind of series: Induction of cell cycle arrest in human HL60 cells assessed as accumulation at G1 phase at 100 uM after 24 hrs by propidium iodide staining based flow cytometry (reference value: 32%). The series is classed as functional.

On to `CCCC(CCC)C(=O)O[C@H]1[C@H](n2cnc3c(N)ncnc32)O[C@H](CO)[C@@]1(C)O`, for which the 50% inhibitory concentration (IC50) – broadly, the concentration at which inhibition is half-maximal – in series [1] is over 1000 µM; in series [2], over 1000 µM; in [4], 650 µM; in series [10] it was 500 µM; in series [11] it was over 1000 µM; in series [12] it was 912 µM. The IC50 in series [15] was over 1000 µM. In addition, the half-life in [3] and in [8] was over 72 h each time. Besides, the inhibition entry in series [5] and in [7] was “Active” each time. Moreover, the results for the Activity in series [6], in series [9] and in series [14] were 40%, 9% and 51%, respectively. Moreover, in [13], the AC50 entry is recorded as “Not Active”.
Take `CCCC(CCC)C(=O)OC[C@H]1O[C@@H](n2cnc3c(N)ncnc32)[C@H](O)[C@]1(C)O`: the inhibition entry in series [16], in [19] and in series [20] was “inactive” throughout. For the same compound, the IC50 is over 200 µM in series [1]; over 200 µM in series [2]; 67.1 µM in [4]; 200 µM in [10]; over 200 µM in [11]; 142 µM in series [12]. For the same compound, the IC50 in series [15] is over 200 µM. Also, the inhibition result in series [17], in series [22] and in series [7] was “Active” throughout. Moreover, the half-life in [3] and in series [8] was over 72 h throughout. Also, the Ki (commonly a dissociation constant, usually derived from enzyme kinetics or from competition with a known ligand) in series [18] worked out at 400 µM. Moreover, the Activity is recorded as 14% in [21], 44% in series [23] and 42% in series [24]. Also, in [13], the AC50 result is given as “Not Active”.
